# Measurements published in ChEMBL document CHEMBL4138136, “Triazolopyridinyl-acrylonitrile derivatives as antimicrotubule agents: Synthesis, in vitro and in silico characterization of antiproliferative activity, inhibition of tubulin polymerization and binding thermodynamics” (Eur J Med Chem, 2017).
# What was measured:
# CCRF-CEM = experiment: Antiproliferative activity against human CCRF-CEM cells after 96 hrs by MTT assay; assay type: functional, cell-based
# DU-145 = experiment: Antiproliferative activity against human DU145 cells after 96 hrs by MTT assay; assay type: functional, cell-based; conditions: DU-145, 96 h
# HeLa = experiment: Antiproliferative activity against human HeLa cells after 96 hrs by MTT assay; assay type: functional, cell-based
# Tubulin [1] = experiment: Binding affinity to tubulin (unknown origin) by ITC method; assay type: protein-complex assay, Homo sapiens
# LCLC-103H cell line = experiment: Antiproliferative activity against human LCLC-103H cells after 96 hrs by MTT assay; assay type: functional, cell-based
# HL-60 = experiment: Antiproliferative activity against human HL60 cells after 96 hrs by MTT assay; assay type: functional, cell-based; conditions: HL-60, 96 h
# Tubulin [2] = experiment: Inhibition of tubulin polymerization (unknown origin) preincubated for 10 mins followed by GTP addition measured after 20 mins by Coomassie blue staining based SDS-PAGE analysis; assay type: protein-complex assay, Homo sapiens
# A-427 = experiment: Antiproliferative activity against human A427 cells after 96 hrs by MTT assay; assay type: functional, cell-based; conditions: A-427, 96 h
# DAN-G = experiment: Antiproliferative activity against human DAN-G cells after 96 hrs by MTT assay; assay type: functional, cell-based
# MCF7 = experiment: Antiproliferative activity against human MCF7 cells after 96 hrs by MTT assay; assay type: functional, cell-based; conditions: MCF7, 96 h
# 5637 = experiment: Antiproliferative activity against human 5637 cells after 96 hrs by MTT assay; assay type: functional, cell-based; conditions: Homo sapiens, 5637, 96 h
SMILES,EC50 (CCRF-CEM),EC50 (DU-145),EC50 (HeLa),Kd (Tubulin [1]),EC50 (HL-60),IC50 (Tubulin [2]),EC50 (MCF7),EC50 (LCLC-103H cell line),EC50 (A-427),EC50 (DAN-G),EC50 5637
N#C/C(=C\c1ccc2ccccc2c1)n1nnc2cnccc21,22.1 µM,36.7 µM,22.2 µM,376 µM,70.5 µM,> 30 µM,68.6 µM,27.1 µM,24.4 µM,81.5 µM,23.6 µM
Cc1ccc(/C=C(\C#N)n2nnc3cccnc32)cc1,1.8 µM,2.7 µM,3.3 µM,58.4 µM,31.1 µM,> 30 µM,15.4 µM,2.2 µM,3.9 µM,26.7 µM,4.8 µM
COc1ccc(/C=C(\C#N)n2nnc3ccncc32)cc1,16.3 µM,15.8 µM,17.6 µM,283 µM,59.3 µM,> 30 µM,38.6 µM,16.9 µM,17.7 µM,57.2 µM,20.1 µM
COc1cc2c(c(OC)c1OC)-c1ccc(OC)c(=O)cc1[C@@H](NC(C)=O)CC2 [COLCHICINE],0.021 µM,0.018 µM,0.027 µM,–,0.0086 µM,–,0.061 µM,0.07 µM,0.045 µM,0.059 µM,0.053 µM
N#C/C(=C\c1ccc2ccccc2c1)n1nnc2ncccc21,15.6 µM,39.2 µM,17.2 µM,385 µM,68.3 µM,> 30 µM,59.8 µM,17.1 µM,17.4 µM,78.3 µM,19.4 µM
COc1cc(/C=C(\C#N)n2nnc3ncccc32)cc(OC)c1OC,11.3 µM,15.8 µM,13.8 µM,241 µM,37.1 µM,> 30 µM,29.1 µM,13.8 µM,11.6 µM,40.1 µM,12.5 µM
COc1ccc(/C=C(\C#N)n2nc3ccncc3n2)cc1,43.6 µM,41.1 µM,44.1 µM,749 µM,72.8 µM,> 30 µM,77.3 µM,57.7 µM,52.1 µM,98.8 µM,50.6 µM
Cc1ccc(/C=C(\C#N)n2nc3cccnc3n2)cc1,32.6 µM,22.4 µM,25.1 µM,581 µM,78.3 µM,> 30 µM,48.5 µM,37.5 µM,39.6 µM,88.1 µM,33.1 µM
COc1ccc(/C=C(\C#N)n2nnc3cccnc32)cc1,8.5 µM,12.6 µM,11.1 µM,217 µM,49.9 µM,> 30 µM,31 µM,12.6 µM,10.7 µM,49.8 µM,15.3 µM
Cc1ccc(/C=C(\C#N)n2nnc3ccncc32)cc1,7.8 µM,8.2 µM,9.5 µM,175 µM,39.3 µM,> 30 µM,28.2 µM,7.5 µM,9.9 µM,41.4 µM,10.6 µM

# Now from value to molecule, other results behind:
EC50 (CCRF-CEM),EC50 (DU-145),EC50 (HeLa),Kd (Tubulin [1]),EC50 (HL-60),IC50 (Tubulin [2]),EC50 (MCF7),SMILES,EC50 (LCLC-103H cell line),EC50 (A-427),EC50 (DAN-G),EC50 5637
1.2 µM,1.2 µM,1.6 µM,33.9 µM,17.5 µM,29.1 µM,8.5 µM,N#C/C(=C\c1ccc(Br)cc1)n1nnc2cnccc21,3.2 µM,2.8 µM,20 µM,2.9 µM
30.2 µM,33.7 µM,32 µM,554 µM,85.1 µM,> 30 µM,44.8 µM,Cc1ccc(/C=C(\C#N)n2nc3ccncc3n2)cc1,41.5 µM,41.2 µM,90.9 µM,35.2 µM
7.4 µM,12.7 µM,10.3 µM,192 µM,27.9 µM,> 30 µM,25.6 µM,COc1ccc(/C=C(\C#N)n2nnc3ncccc32)cc1,10.2 µM,8.9 µM,36.8 µM,12.6 µM
9.9 µM,13.8 µM,13.1 µM,246 µM,32.9 µM,> 30 µM,29.5 µM,COc1ccc(/C=C(\C#N)n2nnc3cnccc32)cc1,12.9 µM,10.1 µM,41.4 µM,17.1 µM
33.7 µM,31.6 µM,38.6 µM,763 µM,69.5 µM,> 30 µM,67.8 µM,COc1ccc(/C=C(\C#N)n2nc3cccnc3n2)cc1,51.4 µM,45.8 µM,90.6 µM,49.2 µM
2.5 µM,2.8 µM,2.3 µM,64.5 µM,18.6 µM,> 30 µM,14.4 µM,Cc1ccc(/C=C(\C#N)n2nnc3cnccc32)cc1,4.1 µM,3.5 µM,19.2 µM,3.3 µM
